According to patent US10656162B2, “Use of glu-tubulin as a biomarker of drug response to furazanobenzimidazoles” (Basilea Pharmaceutica AG, priority 2011, dated 2020):

Experiments:
[1] = test system: CXF 1103 patient-derived colorectal tumour; assay: Colony outgrowth assay, CXF 1103; format: cell-based, human; conditions: for Response to compound (BAL27862, paclitaxel, vinblastine): CXF 1103, colorectal cancer, ex vivo colony outgrowth
Procedure: (§1) Single cell suspensions of patient-derived tumour xenografts (maintained in nude mice) were prepared. For colony outgrowth assays, cells were plated in soft agar in 24-well plates according to the assay introduced by Hamburger & Salmon (Primary bioassay of human tumour stem cells, Science, 1977.197:461-463). 2×10^4-6×10^4 cells in 0.2 mL medium containing 0.4% agar were plated out on a bottom layer of 0.75% agar. Test compounds were applied in 0.2 mL culture medium. Every 24-well plate contained untreated controls and samples in triplicates. Cultures were incubated at 37° C. and 7.5% CO2 for 5-28 days. 24 hours prior to analysis, vital colonies were stained with a solution of metabolisable tetrazolium salt (Alley M C et al, Life Sci. 1982, 31:3071-3078) and were counted with an automatic image analysis system (Omnicon 3600, Biosys GmbH).
(§2) Relative drug effects were expressed by the ratio of the mean number of colonies in the treated wells and the control wells. IC70-values were determined by plotting compound concentrations versus relative colony counts.

[2] = test system: CXF 243 patient-derived colorectal tumour; assay: Colony outgrowth assay, CXF 243; format: cell-based, human; design: key to Response to compound (BAL27862, paclitaxel, vinblastine): Sensitive: BAL27862-sensitive tumour cells have IC70 values in the low nanomolar range; Resistant: BAL27862-resistant tumour cells are defined by IC70 values >600 nanomolar; conditions: for Response to compound (BAL27862, paclitaxel, vinblastine): CXF 243, colorectal cancer, ex vivo colony outgrowth
Procedure: as §1, §2

[3] = test system: LXFE 211 Patient-derived lung tumour; assay: Colony outgrowth assay, LXFE 211; format: cell-based, human; design: key to Response to compound (BAL27862, paclitaxel, vinblastine): Sensitive: BAL27862-sensitive tumour cells have IC70 values in the low nanomolar range; Resistant: BAL27862-resistant tumour cells are defined by IC70 values >600 nanomolar; conditions: for Response to compound (BAL27862, paclitaxel, vinblastine): LXFE 211, lung cancer, ex vivo colony outgrowth
Procedure: as §1, §2

[4] = test system: LXFE 397 Patient-derived lung tumour; assay: Colony outgrowth assay, LXFE 397; format: cell-based, human
Procedure: as §1, §2

[5] = test system: MEXF 1341 patient-derived melanoma; assay: Colony outgrowth assay, MEXF 1341; format: cell-based, human; design: key to Response to compound (BAL27862, paclitaxel, vinblastine): Sensitive: BAL27862-sensitive tumour cells have IC70 values in the low nanomolar range; Resistant: BAL27862-resistant tumour cells are defined by IC70 values >600 nanomolar; conditions: for Response to compound (BAL27862, paclitaxel, vinblastine): MEXF 1341, melanoma, ex vivo colony outgrowth
Procedure: as §1, §2

[6] = test system: MEXF 276 patient-derived melanoma; assay: Colony outgrowth assay, MEXF 276; format: cell-based, human; conditions: for Response to compound (BAL27862, paclitaxel, vinblastine): MEXF 276, melanoma, ex vivo colony outgrowth
Procedure: as §1, §2

[7] = test system: A549 BAL27862-resistant cell line variant; assay: Crystal Violet assay, BAL27862-resistant A549 versus parental line; format: cell-based, human; conditions: for Resistance factors (ratio of IC50 BAL27862-resistant cell line variant and IC50 parental cell line): A549, 72 hours, Crystal Violet
Description: (§3) BAL27862-resistant sublines of human non-small cell lung cancer (H460 ATCC reference HTB-177; A549 ATCC reference CCL-185), ovarian cancer (SKOV3 ATCC reference HTB-77) lines were generated by long-term selection in complete cell culture medium (RPMI-1640 containing 10% FCS; Sigma-Aldrich) by stepwise increasing concentrations of BAL27862. […] The resistant sublines were expanded at the highest tolerated BAL27862 concentration and subsequently frozen and stored in liquid nitrogen.
(§4) After medium was removed, cells were fixed and stained by adding 50 μl Crystal Violet Staining (0.2% Crystal Violet in 50% Methanol) per well. Plates were incubated for 1 hour at room temperature. Subsequently the stain was decanted and plates were washed 4 times with double-distilled water. Plates were air-dried for several hours. Stain was dissolved by adding 100 μl buffer (0.1 M Tris pH 7.5, 0.2% SDS, 20% Ethanol) per well and shaking the plates. Absorbance at 590 nm was measured using a SpectraMax M2e plate reader (Molecular Devices). Anti-proliferative IC50 values were calculated from concentration response curves using GraphPad Prism software. Resistance factors were calculated as a ratio of BAL27862 IC50 in the resistant line variant versus the IC50 in the parental line.

[8] = test system: H460 BAL27862-resistant cell line variant; assay: Crystal Violet assay, BAL27862-resistant H460 versus parental line; format: cell-based, human; conditions: for Resistance factors (ratio of IC50 BAL27862-resistant cell line variant and IC50 parental cell line): H460, 72 hours, Crystal Violet
Description: as §3, §4

SKOV3 resistant 1 = assay: Crystal Violet assay, SKOV3 resistant 1 versus parental line; format: cell-based, human; conditions: for Resistance factors (ratio of IC50 BAL27862-resistant cell line variant and IC50 parental cell line): SKOV3 resistant 1, 72 hours, Crystal Violet
Description: as §3, §4

SKOV3 resistant 2 = assay: Crystal Violet assay, SKOV3 resistant 2 versus parental line; format: cell-based, human; conditions: for Resistance factors (ratio of IC50 BAL27862-resistant cell line variant and IC50 parental cell line): SKOV3 resistant 2, 72 hours, Crystal Violet
Description: as §3, §4

A549 NSCLC cells = assay: Immunofluorescent staining of microtubules, A549; format: cell-based, human; conditions: for Microtubule phenotype of mitotic or G2/M arrested cells: A549, 24 hours, 50 nM BAL27862, 80 nM Compound B, 20 nM Compound C, anti-alpha-tubulin staining
Procedure: (§5) A549 human non-small cell lung cancer (NSCLC, ATCC reference number CCL-185) cells, HeLa cervical cancer cells (ATCC reference number CCL-2) and SKBR3 breast carcinoma cells (ATCC reference number HTB-30) were seeded at densities of 50% on round microscope coverslips and cultured for 24 hours in RPMI-1640 containing 10% FCS (also referred to as FBS) at 37° C., 5% CO2. Compounds to be tested were dissolved in DMSO. The cell culture medium was replaced with medium containing the diluted compound(s) (paclitaxel, vinblastine, colchicine and nocodazole were purchased from Sigma-Aldrich) or vehicle. After treatment for the times indicated in the Brief Description of the Figures, coverslips were washed and cells were fixed in methanol/acetone (1:1) for 5 minutes at room temperature and subsequently incubated in blocking buffer (0.5% BSA and 0.1% TX-100 in PBS) for 30 minutes at room temperature. Specimens were then incubated with anti-alpha-tubulin (Sigma, 1:2000) for 1 hour at room temperature in blocking buffer. After several washing steps cells were incubated with AlexaFluor-488 goat-anti-mouse IgG (Molecular Probes, 1:3000) for 1 hour at room temperature followed by several washing steps with blocking buffer. Specimens were then mounted with ProLong Gold antifade (Molecular Probes, sealed with nail polish and examined with a Leica immunofluorescence microscope. Images were captured with a cooled CCD-camera and processed by ImageJ software.

[9] = test system: HeLa cervical cancer cells; assay: Immunofluorescent staining of microtubules, HeLa; format: cell-based, human; conditions: 24 hours, 50 nM BAL27862
Procedure: as §5, with “Specimens were then mounted with ProLong Gold antifade (Molecular Probes, sealed with nail polish and examined with a Leica immunofluorescence microscope. Images were captured with a cooled CCD-camera and processed by ImageJ software.” left out

[10] = test system: SKBR3 breast cancer cells; assay: Immunofluorescent staining of microtubules, SKBR3; format: cell-based, human; conditions: SKBR3, 24 hours, 50 nM BAL27862
Procedure: as §5, with “Specimens were then mounted with ProLong Gold antifade (Molecular Probes, sealed with nail polish and examined with a Leica immunofluorescence microscope. Images were captured with a cooled CCD-camera and processed by ImageJ software.” left out

[11] = test system: experimental, solid tumour xenograft models; assay: Solid tumour xenograft models; conditions: in vivo
[12] = test system: P-gp pump over-expressing models; assay: Models over-expressing the P-gp pump; format: cell-based; conditions: models tested in vitro; also human mammary tumour xenografts

Compound | Response to compound (BAL27862, paclitaxel, vinblastine) [1] | Response to compound (BAL27862, paclitaxel, vinblastine) [3] | Resistance factors (ratio of IC50 BAL27862-resistant cell line variant and IC50 parental cell line) [7] | Resistance factors (ratio of IC50 BAL27862-resistant cell line variant and IC50 parental cell line) [8] | Resistance factors (ratio of IC50 BAL27862-resistant cell line variant and IC50 parental cell line) (SKOV3 resistant 1) | Resistance factors (ratio of IC50 BAL27862-resistant cell line variant and IC50 parental cell line) (SKOV3 resistant 2) | Microtubule phenotype of mitotic or G2/M arrested cells (A549 NSCLC cells) | other results
N#CCCNc1nonc1-c1nc2ccccc2n1CC(=O)c1ccc(N)cc1 [BAL27862, 3-(4-{1-[2-(4-Amino-phenyl)-2-oxo-ethyl]-1H-benzoimidazol-2-yl}-furazan-3-ylamino)-propionitrile] | Sensitive | Sensitive | 3.0 | 5.3 | 7.6 | 11.6 | multiple dot-like structures are visible | IC70 BAL27862 ([1]; CXF 1103, 70% growth inhibition versus controls): 22 nM; IC70 BAL27862 ([2]; CXF 243, 70% growth inhibition versus controls): 696 nM; IC70 BAL27862 ([3]; LXFE 211, 70% growth inhibition versus controls): 21 nM; IC70 BAL27862 ([4]; LXFE 397, 70% growth inhibition versus controls): >3500 nM; Response to compound (BAL27862, paclitaxel, vinblastine) ([4]; LXFE 397, lung cancer, ex vivo colony outgrowth): Resistant (BAL27862-resistant tumour cells are defined by IC70 values >600 nanomolar); IC70 BAL27862 ([5]; MEXF 1341, 70% growth inhibition versus controls): 25 nM; Response to compound (BAL27862, paclitaxel, vinblastine) [5]: Sensitive; IC70 BAL27862 ([6]; MEXF 276, 70% growth inhibition versus controls): >3500 nM; Response to compound (BAL27862, paclitaxel, vinblastine) [6]: Resistant (BAL27862-resistant tumour cells are defined by IC70 values >600 nanomolar); BAL27862 resistance factors versus parental lines ([7]; A549, based on IC50 determinations): 3.0 fold; BAL27862 resistance factors versus parental lines ([8]; H460, based on IC50 determinations): 5.3 fold; BAL27862 resistance factors versus parental lines (SKOV3 resistant 1; SKOV3 resistant 1, based on IC50 determinations): 7.6 fold; BAL27862 resistance factors versus parental lines (SKOV3 resistant 2; SKOV3 resistant 2, based on IC50 determinations): 11.6 fold; Microtubule phenotype on combination treatment (A549 NSCLC cells; A549, 24 hours vinblastine, colchicine, paclitaxel or nocodazole with the final 4 hours including BAL27862): disruption of the microtubule structures; Microtubule phenotype of mitotic or G2/M arrested cells (A549 NSCLC cells; listed as compound A): highly reproducible and distinct microtubule phenotype; Microtubule phenotype of mitotic or G2/M arrested cells [9]: highly reproducible and distinct microtubule phenotype; Microtubule phenotype of mitotic or G2/M arrested cells [10]: highly reproducible and distinct microtubule phenotype; Activity in tumour xenograft models [11]: activity across a broad panel of experimental, solid tumour xenograft models; Activity with over-expression of the P-gp pump [12]: not affected
COc1cc2c(c(OC)c1OC)-c1ccc(OC)c(=O)cc1[C@@H](NC(C)=O)CC2 [Colchicine, colchicine] | – | – | 0.9 | 1.6 | 2.0 | 2.8 | – | –
Nc1ccc(C(=O)Cn2c(-c3nonc3N)nc3ccccc32)cc1 [Compound B, 2-[2-(4-Amino-furazan-3-yl)-benzoimidazol-1-yl]-1-(4-amino-phenyl)-ethanone] | – | – | – | – | – | – | highly reproducible and distinct microtubule phenotype | –
N#CCCNc1nonc1-c1nc2ccccc2n1CC(=O)c1ccc(N)nc1 [Compound C, 3-(4-{1-[2-(6-Amino-pyridin-3-yl)-2-oxo-ethyl]-1H-benzoimidazol-2-yl}-furazan-3-ylamino)-propionitrile] | – | – | – | – | – | – | highly reproducible and distinct microtubule phenotype | –
COC(=O)Nc1nc2ccc(C(=O)c3cccs3)cc2[nH]1 [Nocodazole, nocodazole] | – | – | 1.6 | 1.3 | 3.6 | 3.9 | – | –
CC(=O)O[C@H]1C(=O)[C@@]2(C)[C@H]([C@H](OC(=O)c3ccccc3)[C@]3(O)C[C@H](OC(=O)[C@H](O)[C@@H](NC(=O)c4ccccc4)c4ccccc4)C(C)=C1C3(C)C)[C@]1(OC(C)=O)CO[C@@H]1C[C@@H]2O [Paclitaxel, paclitaxel] | Resistant (BAL27862-resistant tumour cells are defined by IC70 values >600 nanomolar) | Resistant (BAL27862-resistant tumour cells are defined by IC70 values >600 nanomolar) | 0.06 | 0.3 | 0.4 | 0.5 | – | Response to compound (BAL27862, paclitaxel, vinblastine) [2]: Resistant (BAL27862-resistant tumour cells are defined by IC70 values >600 nanomolar)
CC[C@]1(O)C[C@@H]2CN(CCc3c([nH]c4ccccc34)[C@@](C(=O)OC)(c3cc4c(cc3OC)N(C)[C@H]3[C@@](O)(C(=O)OC)[C@H](OC(C)=O)[C@]5(CC)C=CCN6CC[C@]43[C@@H]65)C2)C1 [Vinblastine, vinblastine, reference compound] | Resistant (BAL27862-resistant tumour cells are defined by IC70 values >600 nanomolar) | Sensitive | 2.3 | 4.6 | 15.7 | – | – | Response to compound (BAL27862, paclitaxel, vinblastine) [2]: Sensitive; Response to compound (BAL27862, paclitaxel, vinblastine) [5]: Sensitive; Response to compound (BAL27862, paclitaxel, vinblastine) [6]: Sensitive
